Assay results published in PubChem BioAssay AID742 (SRMLSC, 2007).
Active and inactive are the calls of the source. How the calls were made is not given here.

Assays:
[1] = Her2 expression suppression with viability readout – cell-based, AlphaScreen, CellTiter-Glo viability, dose response (AID 742); details: human cells, Her2 expression AlphaScreen; CTG viability; at 9.62 µM (top of the series)
[2] = tested on: human cells, Her2 expression AlphaScreen; CTG viability; experiment: as above; details: viability, CellTiter-Glo

Row | Structure (SMILES) | Her2 inhibition [1] | EC50 [2] [µM]
1 | CCOC(=O)c1c(NC(=O)CSc2n[nH]c(N)n2)sc(CC)c1C | -10.4% (inactive) | > 9.62
2 | Cc1ccccc1OCCCC(=O)Nc1nccs1 | -6.38% (inactive) | > 9.62
3 | Cc1ccccc1-n1nc2c(c1NC(=O)c1cc3ccccc3oc1=O)CS(=O)(=O)C2 | -11.6% (inactive) | > 9.62
4 | CCOc1ccccc1NC(=O)Cn1nnc(-c2ccc(OCC)c(OCC)c2)n1 | -13.9% (inactive) | > 9.62
5 | N=C(N)c1c(O)n(C2CCCCC2)c(=O)n(C2CCCCC2)c1=O | -21.5% (inactive) | > 9.62
6 | Cc1ccc(C)n1-c1ccc(N2CCOCC2)nc1 | 3.86% (inactive) | > 9.62
7 | COc1ccccc1-n1nnnc1S(=O)(=O)Cc1ccc(Cl)cc1 | 23.5% (inactive) | > 9.62
8 | Cc1onc(-c2ccccc2)c1C(=O)n1nnc2ccccc21 | -24.8% (inactive) | > 9.62
9 | O=C(CSc1oc(-c2ccccc2)nc1S(=O)(=O)c1ccc(F)cc1)NCC1CCCO1 (stereo unspecified) | 11.4% (inactive) | > 9.62
10 | N#Cc1ccc(-c2ccco2)nc1SCc1ccccc1 | 14.8% (inactive) | > 9.62
11 | Nc1c(C(=O)Nc2ccccc2)sc2nc(-c3ccco3)ccc12 | 18.3% (inactive) | > 9.62
12 | C=C(C)COc1ccc(-c2n[nH]c(C)c2-c2ccccc2OC)c(O)c1 | 4.56% (inactive) | > 9.62
13 | CCN(CC)c1ccc2c(Cl)c(Br)c(=O)oc2c1 | 3.42% (inactive) | > 9.62
14 | COc1ccccc1C(CC(=O)Nc1nccs1)c1ccco1 (stereo unspecified) | 3.82% (inactive) | > 9.62
15 | CCOC(=O)CC1=C(C(=O)OCC)C(c2ccc(OC)cc2OC)C(C#N)=C(N)O1 (stereo unspecified) | -27.6% (inactive) | > 9.62
16 | O=S(=O)(c1ccc(F)cc1)N(CCO)CC(O)Cn1c2ccccc2c2ccccc21 (stereo unspecified) | -33.6% (inactive) | > 9.62
17 | CCOC(=O)N1CCN(C(=O)CSCc2nc(-c3ccccc3C)oc2C)CC1 | -0.97% (inactive) | > 9.62
18 | CCn1c2ccccc2c2cc(C3C(C#N)=C(N)Oc4n[nH]c(COC)c43)ccc21 (stereo unspecified) | 29.6% (inactive) | > 9.62
19 | C=CCn1c(SCc2nc3ccccc3c(=O)[nH]2)nnc1-c1cc2cc(Cl)ccc2o1 | 5.79% (inactive) | > 9.62
20 | CC1(C)CC(=O)C2=C(C1)OC(=O)C2(NC(=O)c1cccs1)C(F)(F)F (stereo unspecified) | -18.5% (inactive) | > 9.62
21 | COC(=O)Nc1ccc(S(=O)(=O)N(CCO)CC(F)(F)C(F)F)cc1 | -11.6% (inactive) | > 9.62
22 | CCOc1ccc(-c2nnn(CC(=O)c3cc(OC)ccc3OC)n2)cc1 | -22.6% (inactive) | > 9.62
23 | Cc1ccc2nc(Nc3ccccc3)c(/C=N/O)c(=O)n2c1 | -10.3% (inactive) | > 9.62
24 | C[C@@]1(CO)[C@H](O)CC[C@@]2(C)[C@H]1CC[C@H]1C[C@@H]3C[C@@]12CC[C@]3(O)CO | 1.16% (inactive) | > 9.62
25 | CCOC(=O)C(C(C)=O)c1c(Br)c(O)c(O)c2c(C(=O)c3ccc(C)cc3)coc12 (stereo unspecified) | 46.1% (inactive) | > 9.62
26 | COc1ccc(Cl)c(Cn2c(NCc3ccco3)nc3c2c(=O)n(C)c(=O)n3C)c1 | 0.72% (inactive) | > 9.62

Row | Structure (SMILES) | Her2 inhibition [1] | EC50 [2] [µM]
27 | Nc1nc(-c2cccs2)c(NC(=O)c2ccccc2)s1 | -8.18% (inactive) | > 9.62
28 | CCn1c(=O)c(C(=O)Nc2nc3ccccc3[nH]2)c(O)c2ccccc21 | 41.2% (inactive) | > 9.62
29 | COc1cc(-c2nc(-c3ccc(NC(=O)c4ccc5c(c4)OCO5)cc3)no2)cc(OC)c1OC | -12.5% (inactive) | > 9.62
30 | CCN1C(=O)CC(C(=O)Nc2ccc(F)cc2)SC1=Nc1ccc2c(c1)OCO2 (stereo unspecified) | -33.1% (inactive) | > 9.62
31 | CC(=O)Nc1cc(OC(C)=O)c2nonc2c1OC(C)=O | 22.3% (inactive) | > 9.62
32 | CCc1nc(C)ccc1OCC(=O)NCCCN(C)C | -3% (inactive) | > 9.62
33 | CCCCCCCCNC(C)C(O)c1ccc(SC(C)C)cc1 (stereo unspecified) | -16.3% (inactive) | > 9.62
34 | CCCCC(C(=O)O)C(C)CC(=O)Nc1cccc(C(=O)O)c1 (stereo unspecified) | -10.2% (inactive) | > 9.62
35 | CC(=O)Nc1ccc(NS(=O)(=O)c2cc(C)sc2C)cc1 | 0.09% (inactive) | > 9.62
36 | Nc1ccc2ncccc2c1N | 1.77% (inactive) | > 9.62
37 | CC(C)n1c(SCc2ccc(Cl)cc2)nc2c1c(=O)[nH]c(=O)n2C | -14.2% (inactive) | > 9.62
38 | N#CCCS(=O)(=O)c1nnnn1-c1ccccc1 | 3.51% (inactive) | > 9.62
39 | CCOC(=O)N1CCN(c2nnnn2-c2ccccc2)CC1 | -3.51% (inactive) | > 9.62
40 | O=C1C(C2=C(O)c3ccccc3C2=O)=Nc2ccccc21 | -1.36% (inactive) | < 0.024
41 | CC(C)N(Cc1nc(-c2ccccc2)no1)C(=O)CN1C(=O)c2ccccc2C1=O | -1.52% (inactive) | > 9.62
42 | OCCN1CCN(CCCN2c3ccccc3Sc3ccc(C(F)(F)F)cc32)CC1 | 12.6% (inactive) | > 9.62
43 | Cc1ccc(C(CC(=O)c2ccco2)SCCO)cc1 (stereo unspecified) | 10.4% (inactive) | > 9.62
44 | Oc1ccc(N=Cc2ccc(-c3cccs3)s2)cc1 | 37.6% (inactive) | < 0.024
45 | C=C(C)Cn1c(-c2ccc(OC)cc2)nc2ccccc21 | -19.2% (inactive) | > 9.62
46 | CC(C)OCCCNC(=O)c1c(N)n(Cc2cccs2)c2nc3ccccc3nc12 | -14.5% (inactive) | > 9.62
47 | CCOC(=O)c1c(-c2cccs2)csc1NC(=O)c1ccco1 | 17.4% (inactive) | > 9.62
48 | CN1CCCN(C(c2ccccc2)c2ccc(Cl)cc2)CC1 (stereo unspecified) | -8.42% (inactive) | > 9.62
49 | CCCCNC(=O)OCCNC(=O)NC | -40% (inactive) | > 9.62
50 | O=C1CC(Sc2nnnn2C2CCCCC2)C(=O)N1c1ccccc1 (stereo unspecified) | -12.8% (inactive) | > 9.62
51 | O=C(Nc1ccc(Cl)cc1)Nc1ccc2c(c1)N1CCN=C1S2 | -7.78% (inactive) | > 9.62
52 | Clc1ccc(CSC2=NCCCN2)cc1Cl | -30.5% (inactive) | > 9.62

Row | Structure (SMILES) | Her2 inhibition [1] | EC50 [2] [µM]
53 | CCOc1cc(C(=O)CSc2nnc(CNc3ccc(Cl)cc3)o2)ccc1NC(=O)CC | -22.6% (inactive) | > 9.62
54 | CCOC(=O)Cn1nnnc1C(CC)N(Cc1cccs1)Cc1cc2ccc(OC)cc2[nH]c1=O (stereo unspecified) | 22.9% (inactive) | > 9.62
55 | OC(CN1CCN(c2cccc(C(F)(F)F)c2)CC1)c1c[nH]c2ccccc12 (stereo unspecified) | 4.59% (inactive) | > 9.62
56 | CN1CCN(CCCN2c3ccccc3Sc3ccc(Cl)cc32)CC1 | -5.38% (inactive) | > 9.62
57 | O=S(=O)(NCc1ccco1)c1cccc2cccnc12 | -18.5% (inactive) | > 9.62
58 | COc1ccc(-c2cc(N)n(S(=O)(=O)c3c(F)c(F)c(F)c(F)c3F)n2)cc1OC | 48.8% (inactive) | > 9.62
59 | CCC(C)NC(=O)c1cnn2c1NC(c1ccc3c(c1)OCO3)CC2C(F)(F)F (stereo unspecified) | -0.33% (inactive) | > 9.62
60 | COCCn1c(Cc2ccccc2)nnc1SCC(=O)N(C)C | 6.46% (inactive) | > 9.62
61 | O=C(Nc1nccs1)C1C2/C=C\CCCCC21 (stereo unspecified) | -0.67% (inactive) | > 9.62
62 | CC1CN(c2oc(COc3ccc(Cl)cc3Cl)nc2C#N)CC(C)O1 (stereo unspecified) | -17.3% (inactive) | > 9.62
63 | CSCC[C@H](NC(=O)NCc1ccc(F)cc1)C(=O)O | -11.5% (inactive) | > 9.62
64 | CCOC(=O)N1CCN(CCC(=O)c2ccc(Cl)cc2)CC1 | 9.27% (inactive) | > 9.62
65 | O=C(NCC(=O)N(CCc1ccccc1)C(C(=O)NC1CCCC1)c1cccnc1)c1ccco1 (stereo unspecified) | -12.6% (inactive) | > 9.62
66 | CS(=O)c1nc(-c2ccc(Br)cc2)cc(-c2ccccc2)c1C#N (stereo unspecified) | 34% (inactive) | > 9.62
67 | CCOC(=O)C1C(c2ccccc2Cl)NC(=O)N(C)C1(O)C(F)(F)F (stereo unspecified) | -10.7% (inactive) | > 9.62
68 | CC(C)c1nnc(NC(=O)CCS(=O)(=O)c2nc(-c3cccs3)cc(C(F)(F)F)n2)s1 | 16.2% (inactive) | > 9.62
69 | c1ccc(-n2c(-c3ccncc3)nnc2N2CCOCC2)cc1 | -8.89% (inactive) | > 9.62
70 | O=S(=O)(Nc1ccc2c(c1)CCC2)c1cccs1 | 10.2% (inactive) | > 9.62
71 | CCCCCN=Cc1c(C)[nH]n(-c2nc3ccccc3s2)c1=O | -1.78% (inactive) | > 9.62
72 | CCOC(=O)CCS(=O)(=O)c1nc(-c2ccccc2)cc(C(F)(F)F)n1 | 27.6% (inactive) | > 9.62
73 | CCCc1[nH]nc2c1C(c1ccc(OC)c(Cn3nc(C)c(Br)c3C)c1)C(C#N)=C(N)O2 (stereo unspecified) | -0.44% (inactive) | > 9.62
74 | O=C1c2cccc3cccc(c23)C(=O)N1c1nncs1 | -25.5% (inactive) | > 9.62
75 | C=CCSC1=N/C(=C\C=C\c2ccco2)C(=O)S1 | 28.4% (inactive) | > 9.62
76 | Clc1ccc(COC(Cn2ccnc2)c2ccc(Cl)cc2Cl)c(Cl)c1 (stereo unspecified) | -0.43% (inactive) | > 9.62
77 | Cc1c(NC(=O)c2cccc(F)c2)c(=O)n(-c2ccccc2)n1C | 10.6% (inactive) | > 9.62
78 | O=C(c1ccco1)N(Cc1ccco1)c1ccc(O)cc1 | -0.36% (inactive) | > 9.62
